Measured values published in US6509359B1, “Pyrrolidin-2-one compounds and their use as neuraminidase inhibitors” (priority 1997, dated 2003).

Experiments:
[1] = target: Influenza NA Type B B/Lee (Influenza B virus, UniProt P03474); assay: Inhibition of influenza neuraminidase (B/Lee); format: biochemical
[2] = target: influenza neuraminidase (N2) (Influenza A virus, UniProt P06820); assay: biochemical; format: biochemical, influenza virus Type A
[3] = cited from earlier work
[4] = test system: HA; details: cited from earlier work
[5] = target: neuraminidase from the H1N9 strain of influenza (Influenza A virus, UniProt P03472); assay: biochemical
[6] = Oral bioavailability; format: in vivo

Row | Compound | IC50 [2] | IC50 [5] | further results
1 | CCC(CC)Nc1cc(C(=O)O)ccc1N1C(=O)CCC1(CN)CO (stereo not shown) [Compound B] | 0.04 µM | – | IC50 [1]: 49 µM; Effectiveness relative to example 8 for the inhibition of influenza neuraminidase (N2) [2]: approximately twice as effective as example 8
2 | CC(=O)N[C@H]1[C@H]([C@H](O)[C@H](O)CO)OC(C(=O)O)=C[C@@H]1O [DANA, 2-deoxy-2,3-didehydro-N-acetylneuraminic acid] | – | – | Activity in vivo [3]: inactive in vivo; Inhibition in vitro [4]: inhibit HA in vitro
3 | O=C(O)c1ccc(N2CCCC2=O)cc1 [Example 1, 1-(4-Carboxyphenyl)pyrrolidin-2-one] | – | > 7000 µM | melting point: 244 to 246 °C
4 | NCC1CCC(=O)N1c1ccc(C(=O)O)cc1N=C(N)N (stereo not shown) [Example 4, 1-1-{2-{[(Amino)(imino)methyl]amino}-4-carboxyphenyl}-5-(aminomethyl)pyrrolidin-2-one] | – | 2600 µM | –
5 | O=C(O)c1ccc(N2C(=O)CCC2(CO)CO)cc1 [Example 5, 1-(4-Carboxyphenyl)-5,5-bis-(hydroxymethyl)pyrrolidin-2-one] | – | 700 µM | –
6 | N=C(N)Nc1cc(C(=O)O)ccc1N1C(=O)CCC1(CO)CO [Example 6, 1-{2-{[(Amino)(imino)methyl]amino}-4-carboxyphenyl}-5,5-bis-(hydroxymethyl)-pyrrolidin-2-one] | – | 5 µM | –
7 | CCC(CC)Nc1cc(C(=O)O)ccc1N1CCCC1=O [Example 7, 1-[4-Carboxy-2-(3-pentylamino)phenyl]pyrrolidin-2-one] | – | 220 µM | –
8 | CCC(CC)Nc1cc(C(=O)O)ccc1N1C(=O)CCC1(CO)CO [Example 8, 1-[4-Carboxy-2-(3-pentylamino)phenyl]-5,5-bis-(hydroxymethyl)pyrrolidin-2-one] | 0.071 µM | 0.048 µM | IC50 [1]: 93 µM; Oral bioavailability [6]: orally bioavailable
9 | CCCC(CC)Nc1cc(C(=O)O)ccc1N1C(=O)CCC1(CO)CO (stereo not shown) [Example 9, 1-[4-Carboxy-2-(3-hexylamino)phenyl]-5,5-bis-(hydroxymethyl)pyrrolidin-2-one] | – | 116 µM | –
10 | CCCC(CCC)Nc1cc(C(=O)O)ccc1N1C(=O)CCC1(CO)CO [Example 10, 1-[4-Carboxy-2-(4-heptylamino)phenyl]-5,5-bis-(hydroxymethyl)pyrrolidin-2-one] | 8.1 µM | 5.5 µM | –
11 | CCC(CC)CNc1cc(C(=O)O)ccc1N1C(=O)CCC1(CO)CO [Example 11, 1-{4-Carboxy-2-[3-pentyl)methylaminolphenyl}-5,5-bis-(hydroxymethyl)pyrrolidin-2-one.] | 3.5 µM | – | –
12 | CCCNc1cc(C(=O)O)ccc1N1C(=O)CCC1(CO)CO [Example 12] | 15.5 µM | – | –
13 | CCC(=O)Nc1cc(C(=O)O)ccc1N1C(=O)CCC1(CO)CO [Example 14, 1-[4-Carboxy-2-(ethylcarbonylamino)phenyl]-5,5-bis(hydroxymethyl)pyrrolidin-2-one] | 1.5 µM | – | –
14 | CCC(C)C(=O)Nc1cc(C(=O)O)ccc1N1C(=O)CCC1(CO)CO (stereo not shown) [Example 15, 1-{[4-Carboxy-2-(1-methylpropyl)carbonylamino]pheny}-5,5-bis(hydroxymethyl)-pyrrolidin-2-one] | 0.18 µM | – | –
15 | CCC(CC)C(=O)Nc1cc(C(=O)O)ccc1N1C(=O)CCC1(CO)CO [Example 16] | 0.82 µM | – | –
16 | CCC(C)C(=O)Nc1cc(C(=O)O)ccc1N1C(=O)CCC1(CN)CO (stereo not shown) [Example 17, 5-Aminomethyl-1-{[4-carboxy-2-(1-methylpropyl)carbonylamino]phenyl}-5-hydroxymethylpyrrolidin-2-one] | 6 µM | – | –
17 | CCC(CC)Nc1cc(C(=O)O)ccc1N1C(=O)CCC1(CO)CCO (stereo not shown) [Example 18, 1-[4-Carboxy-2-(1-ethylpropylamino)phenyl]-5-hydroxyethyl-5-hydroxymethyl-pyrrolidin-2-one] | 184 µM | – | –
